Biological target: T1, Axl (Homo sapiens, UniProt P30530)
T1 construct: endogenous in cells; host or cells: HeLa cells
T1 sequence (P30530 26-894): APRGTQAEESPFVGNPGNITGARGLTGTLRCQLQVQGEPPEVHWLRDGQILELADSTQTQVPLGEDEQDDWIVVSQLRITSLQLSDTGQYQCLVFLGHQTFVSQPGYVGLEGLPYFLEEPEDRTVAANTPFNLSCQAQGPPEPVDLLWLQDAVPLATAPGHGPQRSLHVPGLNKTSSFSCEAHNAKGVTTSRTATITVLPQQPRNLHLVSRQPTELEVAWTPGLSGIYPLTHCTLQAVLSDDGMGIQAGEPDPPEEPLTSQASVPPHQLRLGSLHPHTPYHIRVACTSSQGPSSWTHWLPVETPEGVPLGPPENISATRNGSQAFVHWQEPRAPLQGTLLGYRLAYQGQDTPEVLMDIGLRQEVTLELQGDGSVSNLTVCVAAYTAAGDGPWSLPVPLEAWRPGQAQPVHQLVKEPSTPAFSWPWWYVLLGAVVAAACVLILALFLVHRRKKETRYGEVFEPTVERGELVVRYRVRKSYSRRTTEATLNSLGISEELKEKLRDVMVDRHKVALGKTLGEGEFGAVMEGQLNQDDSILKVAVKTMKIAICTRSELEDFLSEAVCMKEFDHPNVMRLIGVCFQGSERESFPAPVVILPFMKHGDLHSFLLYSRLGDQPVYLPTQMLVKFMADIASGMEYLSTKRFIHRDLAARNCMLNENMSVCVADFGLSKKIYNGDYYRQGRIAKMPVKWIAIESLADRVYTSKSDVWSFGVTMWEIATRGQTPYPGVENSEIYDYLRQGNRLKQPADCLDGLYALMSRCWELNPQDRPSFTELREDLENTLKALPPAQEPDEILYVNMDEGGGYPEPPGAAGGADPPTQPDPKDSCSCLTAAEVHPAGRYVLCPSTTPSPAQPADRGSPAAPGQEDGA
Assay: Phospho-Akt In-Cell Western Assay (inhibition of Axl activity after Axl-antibody cross-linking)
Type: cell-based
Settings: Hela cells, phospho-Akt chemiluminescence normalized to relative cell number; compounds of formula (Ia), Table 1; read-out: IC50
Summary of the method: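 HeLa cells on poly-L-lysine, starved 24 h in 0.5% FCS DMEM with Axl/Fc 500 ng/mL, pre-treated with compound 1 h at 37 °C, then stimulated 5 min by anti-Axl/anti-mouse antibody cross-linking. Fixed cells probed for phospho-Akt with HRP secondary and chemiluminescent detection.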

| IC50 [µM] | Compound |
| --- | --- |
| < 1 | CN(C1CCCC1)C1CCN(c2ccc(Nc3nc(N)n(-c4cc5c(nn4)-c4ccccc4CCC5)n3)cc2F)CC1 [Compound 82, 1-(6,7-dihydro-5H-benzo[6,7]cyclohepta[1,2-c]pyridazin-3-yl)-N^3-(3-fluoro-4-(4-(N-methyl-cyclopentylamino)-piperidinyl)phenyl)-1H-1,2,4-triazole-3,5-diamine] |
| 1 to 10 | CCCN(CCC)C1CCN(c2ccc(Nc3nc(N)n(-c4cc5c(nn4)-c4ccccc4CCC5)n3)cc2F)CC1 [Compound 83, 1-(6,7-dihydro-5H-benzo[6,7]cyclohepta[1,2-c]pyridazin-3-yl)-N^3-(3-fluoro-4-(4-(dipropylamino)piperidin-1-yl)phenyl)-1H-1,2,4-triazole-3,5-diamine] |
| < 1 | CCCN1CCC2CN(c3ccc(Nc4nc(N)n(-c5cc6c(nn5)-c5ccccc5CCC6)n4)cc3F)CCC21 (stereo not drawn) [Compound 84, 1-(6,7-dihydro-5H-benzo[6,7]cyclohepta[1,2-c]pyridazin-3-yl)-N^3-(3-fluoro-4-(1-propyloctahydro-1H-pyrrolo[3,2-c]pyridine-5-yl)phenyl)-1H-1,2,4-triazole-3,5-diamine] |
| < 1 | CN1CCN(C2CCN(c3ccc(Nc4nc(N)n(-c5cc6c(nn5)CCCc5ccccc5-6)n4)cc3F)CC2)CC1 [Compound 85, 1-(6,7-dihydro-5H-benzo[6,7]cyclohepta[4,5-c]pyridazin-2-yl)-N^3-(3-fluoro-4-(4-(N-methylpiperazin-1-yl)piperidin-1-yl)phenyl)-1H-1,2,4-triazole-3,5-diamine] |
| 1 to 10 | CC(C)(C)OC(=O)NC1CCN(c2ccc(Nc3nc(N)n(-c4cc5c(nn4)-c4ccccc4CCC5)n3)cc2F)CC1 [Compound 86, 1-(6,7-dihydro-5H-benzo[6,7]cyclohepta[1,2-c]pyridazin-3-yl)-N^3-(3-fluoro-4-(4-(tert-butyloxycarbonylamino)-piperidin-1-yl)phenyl)-1H-1,2,4-triazole-3,5-diamine] |
| < 1 | Nc1nc(Nc2ccc(N3CCC(N)CC3)c(F)c2)nn1-c1cc2c(nn1)-c1ccccc1CCC2 [Compound 87, 1-(6,7-dihydro-5H-benzo[6,7]cyclohepta[1,2-c]pyridazin-3-yl)-N^3-(3-fluoro-4-(4-aminopiperidin-1-yl)phenyl)-1H-1,2,4-triazole-3,5-diamine] |
| 1 to 10 | Nc1nc(Nc2ccc3c(c2)CCCCO3)nn1-c1cc2c(nn1)-c1ccccc1CCC2 [Compound 89, 1-(6,7-dihydro-5H-benzo[6,7]cyclohepta[1,2-c]pyridazin-3-yl)-N^3-(2,3,4,5-tetrahydrobenzo[b]oxepin-7-yl)-1H-1,2,4-triazole-3,5-diamine] |
| 1 to 10 | CCCCN(Cc1ccc(Nc2nc(N)n(-c3cc4c(nn3)-c3ccccc3CCC4)n2)cc1)C(C)=O [Compound 90, 1-(6,7-dihydro-5H-benzo[6,7]cyclohepta[1,2-c]pyridazin-3-yl)-N^3-(4-((N-butyl-N-acetoamino)methyl)phenyl)-1H-1,2,4-triazole-3,5-diamine] |
| > 20 | Nc1nc(Nc2ccc(CC3C(=O)Nc4ccc(F)cc43)cc2)nn1-c1cc2c(nn1)-c1ccccc1CCC2 (stereo not drawn) [Compound 91, 1-(6,7-dihydro-5H-benzo[6,7]cyclohepta[1,2-c]pyridazin-3-yl)-N^3-(4-((5-fluoroindolin-2-on-3-yl)methyl)phenyl)-1H-1,2,4-triazole-3,5-diamine] |
| > 20 | Nc1nc(Nc2ccc(I)nc2)nn1-c1cc2c(nn1)-c1ccccc1CCC2 [Compound 92, 1-(6,7-dihydro-5H-benzo[6,7]cyclohepta[1,2-c]pyridazin-3-yl)-N^3-(6-iodopyridin-3-yl)-1H-1,2,4-triazole-3,5-diamine] |
| > 20 | Nc1nc(Nc2cccnc2)nn1-c1cc2c(nn1)-c1ccccc1CCC2 [Compound 93, 1-(6,7-dihydro-5H-benzo[6,7]cyclohepta[1,2-c]pyridazin-3-yl)-N^3-(pyridin-3-yl)-1H-1,2,4-triazole-3,5-diamine] |
| > 20 | Nc1ccc(-c2ccc(Nc3nc(N)n(-c4cc5c(nn4)-c4ccccc4CCC5)n3)cn2)cn1 [Compound 94, 1-(6,7-dihydro-5H-benzo[6,7]cyclohepta[1,2-c]pyridazin-3-yl)-N^3-(6-(6-aminopyridin-3-yl)pyridine-3-yl)-1H-1,2,4-triazole-3,5-diamine] |
| > 20 | Nc1cccc(-c2ccc(Nc3nc(N)n(-c4cc5c(nn4)-c4ccccc4CCC5)n3)cn2)c1 [Compound 95, 1-(6,7-dihydro-5H-benzo[6,7]cyclohepta[1,2-c]pyridazin-3-yl)-N^3-(6-(3-aminophenyl)pyridine-3-yl)-1H-1,2,4-triazole-3,5-diamine] |
| > 20 | N#Cc1cccc(-c2ccc(Nc3nc(N)n(-c4cc5c(nn4)-c4ccccc4CCC5)n3)cn2)c1 [Compound 96, 1-(6,7-dihydro-5H-benzo[6,7]cyclohepta[1,2-c]pyridazin-3-yl)-N^3-(6-(3-cyanophenyl)pyridine-3-yl)-1H-1,2,4-triazole-3,5-diamine] |
| > 20 | Nc1nc(Nc2ccc(-c3ccc4c(c3)OCO4)nc2)nn1-c1cc2c(nn1)-c1ccccc1CCC2 [Compound 97, 1-(6,7-dihydro-5H-benzo[6,7]cyclohepta[1,2-c]pyridazin-3-yl)-N^3-(6-(benzo[d][1,3]dioxole-6-yl)pyridine-3-yl)-1H-1,2,4-triazole-3,5-diamine] |
| > 20 | CS(=O)(=O)Nc1cccc(-c2ccc(Nc3nc(N)n(-c4cc5c(nn4)-c4ccccc4CCC5)n3)cn2)c1 [Compound 98, 1-(6,7-dihydro-5H-benzo[6,7]cyclohepta[1,2-c]pyridazin-3-yl)-N^3-(6-(3-methylsulfonamidylphenyl)-pyridine-3-yl)-1H-1,2,4-triazole-3,5-diamine] |
| < 1 | CN1CCC(c2ccc(Nc3nc(N)n(-c4cc5c(nn4)-c4ccccc4CCC5)n3)cc2)CC1 [Compound 99, 1-(6,7-dihydro-5H-benzo[6,7]cyclohepta[1,2-c]pyridazin-3-yl)-N^3-(4-(methylpiperidin-4-yl)phenyl)-1H-1,2,4-triazole-3,5-diamine] |
| 1 to 10 | Nc1nc(Nc2ccc3c(c2)OCCCO3)nn1-c1cc2c(nn1)-c1ccccc1CCC2 [Compound 100, 1-(6,7-dihydro-5H-benzo[6,7]cyclohepta[1,2-c]pyridazin-3-yl)-N^3-(3,4-dihydro-2H-benzo[b][1,4]dioxepin-7-yl)-1H-1,2,4-triazole-3,5-diamine] |
| < 1 | Nc1nc(Nc2ccc(N3CCC(N4CCCC4)CC3)cc2)nn1-c1cc2c(nn1)-c1ccccc1CCC2 [Compound 101, 1-(6,7-dihydro-5H-benzo[6,7]cyclohepta[1,2-c]pyridazin-3-yl)-N^3-(4-(4-pyrrolidin-1-ylpiperidinyl)phenyl)-1H-1,2,4-triazole-3,5-diamine] |
| < 1 | Nc1nc(Nc2ccc(CN3CCC(N4CCCC4)CC3)cc2)nn1-c1cc2c(nn1)-c1ccccc1CCC2 [Compound 103, 1-(6,7-dihydro-5H-benzo[6,7]cyclohepta[1,2-c]pyridazin-3-yl)-N^3-(4-((4-pyrrolidin-1-ylpiperidinyl)methyl)phenyl)-1H-1,2,4-triazole-3,5-diamine] |

| Compound | IC50 [µM] |
| --- | --- |
| Nc1nc(Nc2ccc(N3CCC(N4CC5CN(C6CCCCC6)CC5C4)CC3)c(F)c2)nn1-c1cc2c(nn1)-c1ccccc1CCC2 (stereo not drawn) [Compound 88, 1-(6,7-dihydro-5H-benzo[6,7]cyclohepta[1,2-c]pyridazin-3-yl)-N^3-(3-fluoro-4-(4-(5-cyclohexyl-octahydropyrrolo[3,4-c]pyrrolyl)piperidin-1-yl)phenyl)-1H-1,2,4-triazole-3,5-diamine] | < 1 |

Reference: patent US7709482B2, “Polycyclic heteroaryl substituted triazoles useful as Axl inhibitors” (Rigel Pharmaceuticals, Inc., priority 2006, dated 2010)
